Measurements: PMC6154534, “New Benzimidazole-1,2,4-Triazole Hybrid Compounds: Synthesis, Anticandidal Activity and Cytotoxicity Evaluation” (Molecules : A Journal of Synthetic Chemistry and Natural …, 2017)
Values after ≈ are worked out from the molar mass of the structure shown.

Assays:
[1] = test system: NIH/3T3 mouse embryonic fibroblast cell line (ATCC CRL1658); experiment: MTT cytotoxicity assay; format: cell-based; conditions: NIH3T3, tested 800 to 0.78 µg/mL, read-out: IC50 on NIH/3T3 mouse embryonic fibroblast cell lines
From the text: Toxicity is a key cause of failure at all steps of the new drug development process. The most part of safety-related problems occur at preclinical phases to predict preclinical safety liabilities earlier in the new drug development process. This approach allows to design and/or selection of better drug candidates that have more potentials to be marketed drugs. […] Cytotoxicities of selected compounds (5m, 5o, 5r, 5w, 5y, 5ab, and 5ad), displaying strong anticandidal activity and good predicted pharmacokinetics, were determined against NIH/3T3 mouse embryonic fibroblast cell lines (ATCC CRL1658).
Cytotoxicity was tested using the NIH/3T3 mouse embryonic fibroblast cell line (ATCC® CRL-1658™, London, UK). NIH/3T3 cells were incubated according to the supplier’s recommendations and they were seeded at 1 × 10^4 cells into each well of 96-well plates. MTT assay was performed as previously described. The compounds were tested in a concentration range of 800 µg/mL and 0.78 µg/mL concentrations. Percent inhibition was calculated for each concentration according to the formula below, and IC50 values were determined by plotting a concentration–response curve of inhibition percent versus compound concentrations tested.

[2] = test system: C. parapsilosis (ATCC 22019); experiment: Anticandidal broth microdilution (EUCAST EDef 7.1), resazurin fluorometric readout; format: cell-based; conditions: Lodderomyces parapsilosis, ATCC22019; ATCC 22019, RPMI pH 7, 24 h incubation; read-out: MIC50 C. parapsilopsis
Method: (§1) Synthesized compounds (5a-5ad) were evaluated for anticandidal activity against C. albicans (ATCC 24433), C. krusei (ATCC 6258), C. parapsilosis (ATCC 22019) and C. [NT] 90030). MIC50 values were evaluated via fluorometric measurements, using resazurin solution [56, 57]. […] [NT] 90030). MIC readings were carried out twice for each chemical agent. The yeasts were maintained in RPMI after overnight incubation at 37 °C. The inocula of test microorganisms adjusted to match the turbidity of a MacFarland 0.5 standard tube as determined with a spectrophotometer and the final inoculum size was 0.5-2.5 × 10^5 cfu/mL for antifungal assay. Testing was carried out in RPMI at pH = 7 and the two-fold serial dilutions technique was applied. The last well on the microplates containing only inoculated broth was kept as controls and the last well with no growth of microorganism was recorded to represent the MIC50 expressed in μg/mL. For the antifungal assays, the compounds were dissolved in DMSO. […] The completed plates were incubated for 24 h. At the end of the incubation, resazurin (20 μg/mL) was added into each well to control whether the growth in wells. Then, plates were allowed to incubate for 2 h. MIC50 values were determined using a microplate reader at […].

C. krusei (ATCC 6258) = experiment: as above; format: cell-based; conditions: Pichia kudriavzevii, ATCC6258; ATCC 6258, RPMI pH 7, 24 h incubation
Method: as §1

C. albicans (ATCC 24433) = experiment: as above; format: cell-based; conditions: Candida albicans, ATCC24433; ATCC 24433, RPMI pH 7, 24 h incubation
Method: as §1

C. glabrata (ATCC 90030) = experiment: as above; format: cell-based; conditions: Nakaseomyces glabratus, ATCC90030; ATCC 90030, RPMI pH 7, 24 h incubation
Method: as §1

[3] = test system: ergosterol biosynthesis in C. albicans (ATCC 24433); experiment: Quantification of ergosterol level by LC-MS-MS; format: cell-based; conditions: 0.78, 1.56 and 3.12 µg/mL, 16 h, negative control = 100%
From the text: The most of therapies, planned to treat fungal infections, target in the ergosterol biosynthesis pathway or its end product, ergosterol, a membrane sterol that is unique to fungi. It is the main sterol, and thus is essential for growth and normal membrane function of fungal cell. Besides serving as a bioregulator of membrane fluidity, asymmetry and integrity, it contributes to proper function of membrane-bound enzymes. […] Total intracellular sterols were extracted as reported by Breivik and Owades. […] Ergosterol standard (Product No. 45480, Sigma-Aldrich, Darmstadt, Germany) was used for quantification of ergosterol in both inhibitor-free (negative control) and inhibitor including samples. Ergosterol quantity in negative control samples was regarded as 100%. All concentrations were analyzed in quadruplicate, and the results were expressed as mean ± standard deviation (SD) (Figure 2).
Total intracellular sterols were extracted as reported by Breivik and Owades with slight modifications. […] The cultures were incubated for 16 h with shaking at 35 °C. […] Ergosterol quantity in negative control samples was regarded as 100%. All concentrations were analyzed in quadruplicate, and the results were expressed as mean ± standard deviation (SD).

Candida species = experiment: Anticandidal broth microdilution, results summarised over all strains; format: cell-based; conditions: summary over all four Candida strains; for MIC50: Candida, read-out: MIC50 against Candida species
Method: as §1

C. albicans = experiment: Fluorescence microscopy (Live/Dead BacLight, SYTO-9 / PI); format: cell-based; conditions: 3.12 µg/mL (4 × MIC50), 2 h
From the text: Ergosterol is the major fungal membrane sterol that regulates membrane fluidity, plasma membrane biogenesis and functions. […] It is known that propidium iodide (PI) enters only cells with damaged membranes, while SYTO-9 marks cells with both damaged and unaffected membranes. […] Consequently, fluorescence microscopic experiments supported the findings observed in inhibition of biosynthesis of ergosterol, which is a vital sterol regulating membrane functions. The Live/Dead BacLight viability kit from Molecular Probes, Inc. (Eugene, OR, USA) was used as reported by Nobman et al.. In this assay, the SYTO-9 and PI stains are in competition to bind to fungal nucleic acid. PI enters only cells with damaged membranes, while SYTO-9 marks cells with both damaged and unaffected membranes. A culture of C. albicans was grownup to mid-log phase in 20 mL of SDB. Twenty milliliters of the yeast culture was divided into two equal parts. […] The second culture was incubated under same conditions without a compound. Both cultures were centrifuged at 3000 rpm for 10 min. and then cell pellets were incubated with PI and SYTO9 at 40 °C for 30 min. The stained yeast cultures were observed under a fluorescence microscope (Carl-Zeis, Axio Scope.A1, Göttingen, Germany) using 100× oil-immersion objective.

In the case of `CCn1c(SCC(=O)c2ccc(F)cc2F)nnc1-c1ccc(-c2nc3ccc(F)cc3[nH]2)cc1` [Compound 5ad, 1-(2,4-Difluorophenyl)-2-((4-ethyl-5-(4-(6-fluoro-1H-benzimidazol-2-yl)phenyl)-4H-1,2,4-triazol-3-yl)thio)ethan-1-one], the IC50 [1] is reported as 120 ± 4.39 mg/L (≈ 242 µM), the MIC50 [2] is reported as 0.78 mg/L (≈ 1.58 µM) and the MIC50 (C. krusei (ATCC 6258)) is reported as 1.56 mg/L (≈ 3.16 µM). The MIC50 (C. albicans (ATCC 24433)) was 0.78 mg/L (≈ 1.58 µM), the MIC50 (C. glabrata (ATCC 90030)) was 0.78 mg/L (≈ 1.58 µM) and the “level of ergosterol in C. albicans (in words)” value [3] was “significantly decreased the level of ergosterol at all tested concentrations”. It also gave an MIC50 (Candida species) of 0.78 to 1.56 mg/L (≈ 1.58 to 3.16 µM) and a melting point of 234.2 °C.

For `Cn1c(SCC(=O)c2ccc(F)cc2)nnc1-c1ccc(-c2nc3ccc(F)cc3[nH]2)cc1` [Compound 5w, 2-((5-(4-(6-Fluoro-1H-benzimidazol-2-yl)phenyl)-4-methyl-4H-1,2,4-triazol-3-yl)thio)-1-(4-fluorophenyl)ethan-1-one], the IC50 [1] was 65.3 ± 2.94 mg/L (≈ 141 µM), the MIC50 [2] was 0.78 mg/L (≈ 1.69 µM) and the MIC50 (C. krusei (ATCC 6258)) was 0.78 mg/L (≈ 1.69 µM). The MIC50 (C. albicans (ATCC 24433)) was 0.78 mg/L (≈ 1.69 µM), the MIC50 (C. glabrata (ATCC 90030)) was 0.78 mg/L (≈ 1.69 µM) and the “level of ergosterol in C. albicans (in words)” value [3] was “significantly decreased the level of ergosterol at all tested concentrations”. The “effect on C. albicans cell membrane (PI penetration)” value (C. albicans) was “membrane damaging effect”, the MIC50 (Candida species) was 0.78 mg/L (≈ 1.69 µM) and the “MIC50 against Candida species” value (Candida species) was 0.78 to 1.56 mg/L.
